One test concerns the target T1, IKKε (Homo sapiens, UniProt Q14164).
T1 construct: purchased Invitrogen PR8031B
T1 sequence (Q14164 1-716): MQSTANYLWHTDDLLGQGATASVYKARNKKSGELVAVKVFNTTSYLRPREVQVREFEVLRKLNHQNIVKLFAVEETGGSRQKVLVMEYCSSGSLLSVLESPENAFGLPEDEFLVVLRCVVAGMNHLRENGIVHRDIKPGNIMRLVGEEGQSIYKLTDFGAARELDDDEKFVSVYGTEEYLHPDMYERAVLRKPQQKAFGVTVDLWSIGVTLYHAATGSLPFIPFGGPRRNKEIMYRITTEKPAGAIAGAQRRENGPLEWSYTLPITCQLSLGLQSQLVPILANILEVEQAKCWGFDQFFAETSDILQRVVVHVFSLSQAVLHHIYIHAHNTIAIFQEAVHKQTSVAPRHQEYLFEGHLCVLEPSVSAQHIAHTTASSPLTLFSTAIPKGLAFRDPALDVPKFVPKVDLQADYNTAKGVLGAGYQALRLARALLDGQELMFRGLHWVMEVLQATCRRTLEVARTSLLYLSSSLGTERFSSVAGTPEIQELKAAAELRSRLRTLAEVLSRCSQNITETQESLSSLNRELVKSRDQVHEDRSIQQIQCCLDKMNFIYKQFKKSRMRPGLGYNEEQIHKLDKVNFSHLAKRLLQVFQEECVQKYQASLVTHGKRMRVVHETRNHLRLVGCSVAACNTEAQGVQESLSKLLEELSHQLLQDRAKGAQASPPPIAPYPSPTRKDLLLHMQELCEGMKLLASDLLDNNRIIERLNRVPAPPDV
The test can be described thus: ADP-Glo Kinase Assay, inhibition activity on IKKε. The format is biochemical. How it is done: (§1) The inhibition activities on TNIK, IKKε and TBK1 were measured by a luminometer, TNIK/IKKε/TBK1 Kinase Enzyme System (Promega, Ca# V4158; Invitrogen, PR8031B, Promega, Ca# V3991) and ADP-Glo Kinase Assay using ADP-Glo™ Kinase Analysis Kit (Promega, Ca# V9101) and a kinase reaction buffer [40 mM Tris(pH 7.5), 20 mM MgCl2, 0.1 mg/mL BSA] in accordance with the manufacturer's protocol.
A general note: ADP-Glo first removes unused ATP, then detects ADP through luciferase.

The next test has as its target T2, TBK1 (Homo sapiens, UniProt Q9UHD2).
T2 construct: purchased Promega V3991
T2 sequence (Q9UHD2 1-729): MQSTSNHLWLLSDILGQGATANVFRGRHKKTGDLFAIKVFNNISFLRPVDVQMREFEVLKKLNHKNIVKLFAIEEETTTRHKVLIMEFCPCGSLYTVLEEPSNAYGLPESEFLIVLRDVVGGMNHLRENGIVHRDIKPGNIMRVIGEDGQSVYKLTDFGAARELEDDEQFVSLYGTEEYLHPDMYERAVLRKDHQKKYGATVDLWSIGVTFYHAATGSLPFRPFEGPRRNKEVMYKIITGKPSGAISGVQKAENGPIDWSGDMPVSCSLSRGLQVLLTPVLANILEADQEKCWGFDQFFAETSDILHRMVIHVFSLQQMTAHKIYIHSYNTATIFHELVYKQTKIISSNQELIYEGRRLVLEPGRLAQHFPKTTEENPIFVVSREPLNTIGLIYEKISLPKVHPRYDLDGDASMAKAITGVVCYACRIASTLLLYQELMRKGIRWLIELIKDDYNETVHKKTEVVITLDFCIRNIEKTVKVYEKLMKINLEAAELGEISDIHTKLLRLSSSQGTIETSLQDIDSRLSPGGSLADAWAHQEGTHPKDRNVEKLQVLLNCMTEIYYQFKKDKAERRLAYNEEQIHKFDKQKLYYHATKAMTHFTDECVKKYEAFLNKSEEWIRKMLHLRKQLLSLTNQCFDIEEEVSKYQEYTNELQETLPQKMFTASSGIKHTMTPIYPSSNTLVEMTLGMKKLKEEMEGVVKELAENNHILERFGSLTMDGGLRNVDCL
The test can be described thus: ADP-Glo Kinase Assay, inhibition activity on TBK1. The format is biochemical. How it is done:
as §1

In patent US9856216B2, “Compounds as TNIK, IKKε and TBK1 inhibitors and pharmaceutical composition comprising same” (GREEN CROSS CORPORATION, priority 2015, dated 2018) one finds IC50 data, which are given here for seven compounds.

Bounds are passed on as bounds.

In general, IC50 refers to the midpoint of a concentration-inhibition curve. For `Nc1ccc(-c2ccnc3[nH]ccc23)c2c1C(=O)NC2` [Example 80, 7-Amino-4-(1H-pyrrolo[2,3-b]pyridin-4-yl)isoindolin-1-one], the concentration for half-maximal inhibition (IC50) against IKKε is over 10000 nM; on TBK1 it was 9230 nM.

As for `Nc1ccc(-c2c[nH]c3ncc(-c4ccc(CN5CCOCC5)s4)cc23)c2c1C(=O)NC2` [Example 86, 7-Amino-4-(5-(5-(morpholinomethyl)thiophen-2-yl)-1H-pyrrolo[2,3-b]pyridin-3-yl)isoindolin-1-one], the IC50 worked out at 56 nM against IKKε and 32 nM against TBK1.

For the compound `COc1cccc(Nc2nccc(-c3ccc(N)c4c3CNC4=O)n2)c1` [Example 70, 7-Amino-4-(2-((3-methoxyphenyl)amino)pyrimidin-4-yl) isoindolin-1-one], the IC50 on IKKε and at TBK1 was 51 nM each time.

For `Cc1cccc(Nc2nccc(-c3ccc(N)c4c3CNC4=O)n2)c1` [Example 84, 7-Amino-4-(2-(m-tolylamino)pyrimidin-4-yl)isoindolin-1-one], the half-maximal inhibitory concentration (IC50) against IKKε was 440 nM; on TBK1 it was 200 nM.

Take `Cc1ccc(Nc2nccc(-c3ccc(N)c4c3CNC4=O)n2)cc1` [Example 83, 7-Amino-4-(2-(p-tolylamino)pyrimidin-4-yl)isoindolin-1-one]: the values for the half-maximal inhibitory concentration (IC50) against IKKε and on TBK1 were 870 nM and 380 nM, respectively.

Consider `Cn1cc(Nc2nccc(-c3ccc(N)c4c3CNC4=O)n2)cn1` [Example 71], for which the IC50 at IKKε was 160 nM; against TBK1, 150 nM.

In the case of `COc1cccc(Nc2cc(-c3ccc(N)c4c3CNC4=O)ccn2)c1` [Example 68, 7-Amino-4-(2-((3-methoxyphenyl)amino)pyridin-4-yl) isoindolin-1-one], the concentration for half-maximal inhibition (IC50) was found to be 2640 nM at IKKε and 1240 nM against TBK1.
